Results: article PMC6792352, “Limited Chemical Structural Diversity Found to Modulate Thyroid Hormone Receptor in the Tox21 Chemical Library” (Environmental Health Perspectives, 2019)
Counter-ions that a name gives are not always drawn. Positions of bridges follow the written chain, without caps; N, C: chain ends. Non-standard residues stand in square brackets, D forms with d. Residues, ends and D or L forms follow the SMILES beside them. *: point of attachment. pGlu = O=C1CC[C@@H](C(=O)O)N1; X3 = CC[C@H](C)CCCCC(=O)*; Dab = NCC[C@H](N)C(=O)O

Assay: in vitro
Settings: rat, gh3-tre-luc cells, AC50 (uM) modified / 1000

Point of comparison: `CCOCn1c(-c2ccc(Cl)cc2)c(C#N)c(Br)c1C(F)(F)F` [Chlorfenapyr], CC50 at 24 h 2.15 µM. Against it:
- C1CN(P2(N3CC3)=NP(N3CC3)(N3CC3)=NP(N3CC3)(N3CC3)=N2)CCO1 (centres unmarked) [Fotretamine] — higher, > 50 µM
- O=C1OC(CN2CCOCC2)CN1/N=C/c1ccc([N+](=O)[O-])o1 (centres unmarked) [Furaltadone hydrochloride] — higher, > 20 µM
- OCCC1CCCCN1 (centres unmarked) [2-?Piperidineethanol] — higher, > 90 µM
- CCC(=O)OC/C=C/c1ccccc1 [(2E)-3-Phenylprop-2-en-1-yl propanoate] — higher, > 90 µM
- CC(C)(C)C(=O)O [2,2-Dimethylpropanoic acid] — higher, > 90 µM
- CC1(C)OC[C@@H](COC(=O)CCc2ccc(OC[C@@H](O)CNCCNC(=O)N3CCOCC3)cc2)O1 [Landiolol hydrochloride] — higher, > 50 µM
- CCCCCCCCCCCCCOS(=O)(=O)O [Sodium tridecyl sulfate] — higher, > 90 µM
- C[C@](N)(Cc1ccc(O)c(O)c1)C(=O)O [Methyldopa sesquihydrate] — higher, > 90 µM
- CC(C)CCCCCCCOC(=O)CCCCC(=O)OCCCCCCCC(C)C [Diisodecyl hexanedioate] — higher, > 100 µM
- COc1ccc2cc1Oc1ccc(cc1)C[C@H]1c3c(cc4c(c3Oc3cc5c(cc3OC)CCN(C)[C@@H]5C2)OCO4)CCN1C [Cepharanthine] — 5.7-fold higher, 12.3 µM
- C=C(C)[C@@H]1CCC2=CCC[C@@H](C)[C@]2(C)C1 [Valencene] — higher, > 90 µM
- CCCCCCCCCC(=O)O [Decanoic acid] — higher, > 50 µM
- COC(=O)[C@@H](N)CCCNC(=N)N[N+](=O)[O-] [L-Nitroarginine methyl ester] — higher, > 50 µM
- COC(=O)Cc1cccc2ccccc12 [Methyl 1-naphthaleneacetate] — higher, > 90 µM
- OCc1ccc(Cl)cc1Cl [2,4-Dichlorobenzyl alcohol] — higher, > 90 µM
- CC(C)(C)N(NC(=O)c1ccc(Cl)cc1)C(=O)c1ccccc1 [Halofenozide] — 2.3-fold higher, 4.99 µM
- Oc1ccc(C(O)CNCCCCCCNCC(O)c2ccc(O)c(O)c2)cc1O (centres unmarked) [Hexoprenaline sulfate] — 9.7-fold higher, 20.9 µM
- c1ccc2c(c1)Sc1ccccc1N2C[C@@H]1CN2CCC1CC2 [Levomequitazine] — higher, > 50 µM
- COC(=O)c1ccccc1C(=O)c1ccc(OCCN2CCCCC2)cc1 [Pitofenone hydrochloride] — 20-fold higher, 42.7 µM
- C=CC(N)=O [Acrylamide] — higher, > 90 µM
- O=C(O)/C=C/c1ccc(/C=C/C(=O)O)cc1 [3,3'-(1,4-Phenylene)bis-2-propenoic acid] — higher, > 50 µM
- CCO[Si](CCC1CCC2OC2C1)(OCC)OCC (centres unmarked) [Triethoxy[2-(7-oxabicyclo[4.1.0]hept-3-yl)ethyl]silane] — higher, > 90 µM
- CCc1cnc(C(=O)O)c(C(=O)O)c1 [5-Ethyl-2,3-pyridinedicarboxylic acid] — higher, > 100 µM
- CCC(=O)Oc1ccc2c(c1)CC[C@@H]1[C@@H]2CC[C@]2(C)[C@@H](OC(=O)CC)CC[C@@H]12 [Estradiol dipropionate] — higher, > 50 µM
- CNC(=O)ON=CC(C)(C)[S+](C)[O-] (centres unmarked) [Aldicarb sulfoxide] — higher, > 90 µM
- CC(C)(C)c1ccc2c(S(=O)(=O)O)c(C(C)(C)C)ccc2c1 [Sodium dibunate] — higher, > 50 µM
- CCC(CO)CO [2-Ethylpropane-1,3-diol] — higher, > 90 µM
- O=C(O)C(Cl)(Cl)Cl [Trichloroacetic acid] — higher, > 90 µM
- CN(C)N=Nc1ccccc1 [1-Phenyl-3,3-dimethyltriazene] — higher, > 90 µM
- CC1(C)O[C@@H]2C[C@H]3[C@@H]4CCC5=CC(=O)C=C[C@]5(C)[C@@]4(F)[C@@H](O)C[C@]3(C)[C@]2(C(=O)CO)O1 [Triamcinolone acetonide] — higher, > 90 µM
- O=C(c1ccc(O)cc1)c1ccc(Cl)cc1 [4-Hydroxy-4'-chlorobenzophenone] — higher, > 90 µM
- CCCCCCCCCCCCCCO [1-Tetradecanol] — higher, > 90 µM
- CCNCC [Diethylamine] — higher, > 100 µM
- O=CC=O [Glyoxal] — higher, > 90 µM
- COc1ccc(C(=O)c2ccc(C)cc2)c(O)c1 [Mexenone] — higher, > 90 µM
- N#C[C@@H]1C[C@@H]2C[C@@H]2N1C(=O)[C@@H](N)C12CC3CC(CC(O)(C3)C1)C2 [Saxagliptin] — higher, > 50 µM
- c1ccc2ccccc2c1 [Naphthalene] — higher, > 90 µM
- Nc1ccc(C(=O)NCC(=O)O)cc1 [Aminohippuric acid] — higher, > 20 µM
- CN1CCOC(c2ccccc2)c2ccccc2C1 (centres unmarked) [Nefopam hydrochloride] — higher, > 20 µM
- CCNC(=S)NCC [N,N'-Diethylthiourea] — higher, > 90 µM
- CNNCc1ccc(C(=O)NC(C)C)cc1 [Procarbazine hydrochloride] — higher, > 50 µM
- O=C1NC(=O)[C@@]2(CCOc3ccc(F)cc32)N1 [Sorbinil] — higher, > 50 µM
- NC(CS)C(=O)O (racemic) [DL-Cysteine] — higher, > 50 µM
- Cn1ccc2cc3c(cc21)CCN3C(=O)Nc1cccnc1 [SB 206553 hydrochloride] — higher, > 50 µM
- N#CNC(=N)N [Cyanoguanidine] — higher, > 90 µM
- C=CC(=O)CC [Ethyl vinyl ketone] — higher, > 90 µM
- CCCCc1nc(Cl)c(CO)n1Cc1ccc(-c2ccccc2-c2nn[nH]n2)cc1 [Losartan] — higher, > 50 µM
- NS(=O)(=O)c1ccc(C(=O)O)cc1 [Carzenide] — higher, > 50 µM
- NC[C@H]1CC[C@H](C(=O)Oc2ccc(CCC(=O)O)cc2)CC1 [Cetraxate hydrochloride] — higher, > 50 µM
- FC(F)(F)c1ccccc1-n1ccnc1 [1-[2-(Trifluoromethyl)phenyl]-1H-imidazole] — higher, > 50 µM
- O=C(/C=C/c1ccc(O)c(O)c1)O[C@@H](C(=O)O)[C@@H](OC(=O)/C=C/c1ccc(O)c(O)c1)C(=O)O [L-Cichoric acid] — higher, > 90 µM
- Cc1cccc[n+]1[O-] [2-Methylpyridine 1-oxide] — higher, > 90 µM
- C=C(C)C(=O)OCCCCOC(=O)C(=C)C [Butane-1,4-diyl bis(2-methylprop-2-enoate)] — higher, > 90 µM
- CC[C@H](C)CCCCC(=O)N[C@@H](CCN)C(=O)N[C@H](C(=O)N[C@@H](CCN)C(=O)N[C@H]1CCNC(=O)[C@H]([C@@H](C)O)NC(=O)[C@H](CCN)NC(=O)[C@H](CCN)NC(=O)[C@H](CC(C)C)NC(=O)[C@@H](CC(C)C)NC(=O)[C@H](CCN)NC1=O)[C@@H](C)O [Colistin A] (X3-[Dab]T[Dab][Dab][Dab][dL]L[Dab][Dab]T; lactam 4-C) — higher, > 50 µM
- CN(CCOc1ccc(NS(C)(=O)=O)cc1)CCc1ccc(NS(C)(=O)=O)cc1 [Dofetilide] — higher, > 50 µM
- O=C(C(=O)c1ccco1)c1ccco1 [alpha-Furil] — higher, > 90 µM
- O=C(O)c1ccc(OCCCOc2ccc(C(=O)O)cc2)cc1 [1,3-Bis(4-carboxyphenoxy)propane] — higher, > 50 µM
- O=C1c2ccccc2C(=O)N1CCl [2-(Chloromethyl)-1H-isoindole-1,3(2H)-dione] — higher, > 90 µM
- C=CCN(C1=NCCN1)c1c(Cl)cccc1Cl [Alinidine] — higher, > 50 µM
- O=S(=O)(O)c1ccc(Nc2nc(Nc3ccc(/C=C/c4ccc(Nc5nc(Nc6ccc(S(=O)(=O)O)cc6)nc(N(CCO)CCO)n5)cc4S(=O)(=O)O)c(S(=O)(=O)O)c3)nc(N(CCO)CCO)n2)cc1 [C.I. Fluorescent Brightener 220] — higher, > 60 µM
- CCC/C=C/C=O [(2E)-2-Hexenal] — higher, > 90 µM
- C[C@@H](O)[C@H]1C(=O)N2C(C(=O)O)=C(SCCN=CN)C[C@H]12 [Imipenem] — higher, > 20 µM
- O=S(=O)(O)c1cccc2c(S(=O)(=O)O)cccc12 [1,5-Naphthalenedisulfonic acid, disodium salt hydrate] — higher, > 90 µM
- CCCCOC(=O)c1ccccc1C(=O)OCc1ccccc1 [Benzyl butyl phthalate] — higher, > 90 µM
- O=[N+]([O-])c1ccc(F)c(Cl)c1 [2-Chloro-1-fluoro-4-nitrobenzene] — higher, > 90 µM
- Nc1cccc2c1CN(C1CCC(=O)NC1=O)C2=O (centres unmarked) [Lenalidomide] — higher, > 50 µM
- Cc1cccc(CN2CCN(C(c3ccccc3)c3ccc(Cl)cc3)CC2)c1 (centres unmarked) [Meclozine dihydrochloride] — 7.3-fold higher, 15.6 µM
- CCCCC(CC)COC(=O)c1ccccc1 (centres unmarked) [2-Ethylhexyl benzoate] — higher, > 90 µM

Same assay, conditions: rat, gh3-tre-luc cells, AC50 (uM) modified / 1000, Tox21_110001=Tox21_111521; viability, 1 nM T3 present, 24 h

For `C[C@@H]([C@H](O)c1ccccc1)N(C)C` [Methylephedrine], the CC50 at 24 h was greater than 50 µM.

Same assay, conditions: rat, gh3-tre-luc cells, AC50 (uM) modified / 1000, Tox21_110001=Tox21_112815; viability, 1 nM T3 present, 24 h

`CC[C@H](C)[C@H](NC(=O)[C@H](Cc1ccccc1)NC(=O)[C@H](C)NC(=O)[C@H](CC(=O)O)NC(=O)[C@H](CCCCN)NC(=O)[C@H](CO)NC(=O)[C@@H]1CCCN1C(=O)[C@@H]1CCC(=O)N1)C(=O)NCC(=O)N[C@@H](CC(C)C)C(=O)N[C@@H](CCSC)C(N)=O` [Eledoisin] ([pGlu]PSKDAFIGLM-NH2) showed a CC50 at 24 h greater than 50 µM.

Same assay, conditions: rat, gh3-tre-luc cells, AC50 (uM) modified / 1000, Tox21_110001=Tox21_112835; viability, 1 nM T3 present, 24 h

For `C[C@H]1[C@H]2Cc3ccc(O)cc3[C@]1(C)CCN2CCc1ccccc1` [(-)-Phenazocine hydrobromide], the CC50 at 24 h was 48.2 µM.

Same assay, conditions: rat, gh3-tre-luc cells, AC50 (uM) modified / 1000, Tox21_110001=Tox21_112852; viability, 1 nM T3 present, 24 h

With `CC(Cc1ccc2c(c1)OCO2)NO` (centres unmarked) [1-(1,3-Benzodioxol-5-yl)-N-hydroxypropan-2-amine hydrochloride] the CC50 at 24 h was greater than 100 µM.

Same assay, conditions: rat, gh3-tre-luc cells, AC50 (uM) modified / 1000, Tox21_110001=Tox21_200635; viability, 1 nM T3 present, 24 h

`N#CCCC#N` [Succinonitrile] showed a CC50 at 24 h greater than 90 µM.

Same assay, conditions: rat, gh3-tre-luc cells, AC50 (uM) modified / 1000, Tox21_110001=Tox21_200804; viability, 1 nM T3 present, 24 h

With `N#CC(O)c1ccccc1` (stereo not drawn) [alpha-Hydroxybenzeneacetonitrile] the CC50 at 24 h was greater than 90 µM.

Same assay, conditions: rat, gh3-tre-luc cells, AC50 (uM) modified / 1000, Tox21_110001=Tox21_201575; viability, 1 nM T3 present, 24 h

With `COCCl` [Chloromethyl methyl ether] the CC50 at 24 h was greater than 90 µM.

Same assay, conditions: rat, gh3-tre-luc cells, AC50 (uM) modified / 1000, Tox21_110001=Tox21_302939; viability, 1 nM T3 present, 24 h

For `COCCl` [Chloromethyl methyl ether], the CC50 at 24 h was greater than 30 µM.
